target: WDR5 (Homo sapiens (Human), UniProt P61964); experiment: TR-FRET binding assay, displacement of 10mer-Thr-FAM probe from His-tagged WDR5; conditions: not given
Method: The LanthaScreenTM Elite Tb-anti-HIS Antibody from ThermoFisher Scientific was used for this purpose. […] The ratio of the 520 and 495 signals are then utilized to generate a dose-response curve to calculate an IC50 value. […] WDR[…] tag protein is used at 2 nM.

Q: COc1ccc(C(=O)NCc2ccc(Cl)c(Cl)c2)cc1CNC1=NCCN1 [Example B28] was tested. Which Ki did it give?
A: The Ki was 0.622 nM.

Q: Which Ki does the source give for O=C(NCc1ccc(Cl)c(Cl)c1)c1cc(CNC2=NCCN2)ccc1F [Example B36, N-(3,4-dichlorobenzyl)-5-(((4,5-dihydro-1H-imidazol-2-yl)amino)methyl)-2-fluorobenzamide] here?
A: Its Ki is 0.917 nM.

Q: How did the Ki turn out when Cc1ccncc1-c1cc(CNC2=NCCN2)cc(C(=O)NC(C2CC2)C2CC2)c1 [Example B93] was run?
A: The Ki was 0.759 nM.

Q: How did the Ki turn out when Cc1cc(-c2cc(CNC3=NCCN3)cc(C(=O)NCc3ccc(Cl)c(C)c3)c2)ccn1 [Example B84] was run?
A: Its Ki is 0.118 nM.

Q: For Cc1nc(F)ccc1-c1cc(CNC2=NCCN2)cc(C(=O)NCc2ccc(Cl)c(Cl)c2)c1 [Example B64], which Ki is on record?
A: Its Ki is 0.0213 nM.

Q: Which Ki does the source give for Cc1cc(F)ccc1-c1cc(CNC2=NCCC2)cc(C(=O)NCc2ccc(Cl)c(Cl)c2)n1 [Example C22] here?
A: The Ki was 0.132 nM.

Q: Which Ki does the source give for COc1ccnc(CNC(=O)c2cc(CNC3=NCCN3)cc(-c3cc(OC)ccc3OC)c2)c1 [Example B115] here?
A: The Ki was 0.48 nM.

Q: For COc1ccnc(CNC(=O)c2cc(CNC3=NCCN3)cc(-c3cc(Cl)ccc3OC)c2)c1 [Example B116], which Ki is on record?
A: Its Ki is 0.106 nM.

same assay, conditions: Inhibition of WDR5 by TR-FRET assay

Q: With COc1cc(CNC(=O)c2cc(CNC3=NCCC3)cc(-c3cccn3C)c2)cc(OC)c1 [Example 58, 3-(((3,4-Dihydro-2H-pyrrol-5-yl)amino)methyl)-N-(3,5-dimethoxybenzyl)-5-(1-methyl-1H-pyrrol-2-yl)benzamide] as the compound, how does the Ki read?
A: The Ki was 5.8 nM.

Q: Which Ki does the source give for COc1ccnc(CNC(=O)c2cc(CNC3=NCCN3)cc(-c3ccc(F)nc3C)c2)c1 [Example 11, 3-(((4,5-Dihydro-1H-imidazol-2-yl)amino)methyl)-5-(6-fluoro-2-methylpyridin-3-yl)-N-((4-methoxypyridin-2-yl)methyl)benzamide] here?
A: The Ki was 0.22 nM.

Q: With Cc1cnccc1-c1cc(CNC2=NCCN2)cc(C(=O)NCc2ccc(Cl)c(Cl)c2)n1 [Example 84, N-(3,4-Dichlorobenzyl)-4-(((4,5-dihydro-1H-imidazol-2-yl)amino)methyl)-3′-methyl-[2,4′-bipyridine]-6-carboxamide] as the compound, how does the Ki read?
A: Its Ki is 0.15 nM.

Q: For COc1ccnc(CNC(=O)c2cc(CNC3=NCCN3)cc(-c3cc(C(C)C)ccc3OC)c2)c1 [Example 45, 5-(((4,5-dihydro-1H-imidazol-2-yl)amino)methyl)-5′-isopropyl-2′-methoxy-N-((4-methoxypyridin-2-yl)methyl)-[1,1′-biphenyl]-3-carboxamide], which Ki is on record?
A: Its Ki is 1.01 nM.

Q: With COc1ncc(C)cc1-c1cc(CNC2=NCCN2)cc(C(=O)NCc2ccc(Cl)c(Cl)c2)n1 [Example 83, N-(3,4-Dichlorobenzyl)-4-(((4,5-dihydro-1H-imidazol-2-yl)amino)methyl)-2′-methoxy-5′-methyl-[2,3′-bipyridine]-6-carboxamide] as the compound, how does the Ki read?
A: The Ki was 0.31 nM.

Q: For COc1cc(OC)cc(C(C)NC(=O)c2cc(Cn3ccnc3C)cc(-c3cccc(CO)c3)n2)c1 (stereo not shown) [Example 157, N-(1-(3,5-dimethoxyphenyl)ethyl)-6-(3-(hydroxymethyl)phenyl)-4-((2-methyl-1H-imidazol-1-yl)methyl)picolinamide], which Ki is on record?
A: The Ki was 27 nM.

Q: Which Ki does the source give for COc1cc(OC)cc(C(C)NC(=O)c2cc(CNC3=NCCC3)cc(-c3ccc(F)cc3C(F)(F)F)n2)c1 (stereo not shown) [Example 93, 4-(((3,4-dihydro-2H-pyrrol-5-yl)amino)methyl)-N-(1-(3,5-dimethoxyphenyl)ethyl)-6-(4-fluoro-2-(trifluoromethyl)phenyl)picolinamide] here?
A: Its Ki is 3.3 nM.

Q: How did the Ki turn out when Cc1cc(-c2cc(CNC(=N)N)cc(C(=O)NCc3ccc(Cl)cn3)c2)ccn1 [Example 103, N-((5-Chloropyridin-2-yl)methyl)-3-(guanidinomethyl)-5-(2-methylpyridin-4-yl)benzamide] was run?
A: The Ki was 3.3 nM.

Q: Cc1nccn1Cc1cc(C(=O)NCc2ccc(Cl)c(Cl)c2)cc(-c2cccc(CO)c2)c1 [Example 147, N-(3,4-dichlorobenzyl)-3′-(hydroxymethyl)-5-((2-methyl-1H-imidazol-1-yl)methyl)-[1,1′-biphenyl]-3-carboxamide] was tested. Which Ki did it give?
A: The Ki was 0.31 nM.

Q: For COc1ccc(CNC(=O)c2cc(CNC(=N)N)cc(-c3ccnc(C)c3)c2)cc1Cl [Example 101, N-(3-Chloro-4-methoxybenzyl)-3-(guanidinomethyl)-5-(2-methylpyridin-4-yl)benzamide], which Ki is on record?
A: Its Ki is 2.1 nM.

Q: Which Ki does the source give for COc1cc(OC)cc(C(C)NC(=O)c2cc(CNC3=NCCN3)cc(C(F)(F)F)c2)c1 (stereo not shown) [Example 33, 3-(((4,5-Dihydro-1H-imidazol-2-yl)amino)methyl)-N-(1-(3,5-dimethoxyphenyl)ethyl)-5-(trifluoromethyl)benzamide] here?
A: Its Ki is 8.9 nM.

Q: Which Ki does the source give for COc1ccnc(CNC(=O)c2cc(CNC3=NCCN3)cc(-c3cc(C)c(F)cc3C)c2)c1 [Example 51, 5-(((4,5-Dihydro-1H-imidazol-2-yl)amino)methyl)-4′-fluoro-N-((4-methoxypyridin-2-yl)methyl)-2′,5′-dimethyl-[1,1′-biphenyl]-3-carboxamide] here?
A: Its Ki is under 0.1 nM.

Q: Which Ki does the source give for Cc1nccn1Cc1cc(OC2CCC2)cc(C(=O)NCc2ccc(Cl)c(Cl)c2)c1 [Example 143, 3-Cyclobutoxy-N-(3,4-dichlorobenzyl)-5-((2-methyl-1H-imidazol-1-yl)methyl)benzamide] here?
A: Its Ki is 0.43 nM.

Q: Which Ki does the source give for COc1cc(CNC(=O)c2cc(CNC3=NCCN3)cc(-c3cnc(OC)c(Cl)c3)c2)cc(OC)c1 [Example 34, 3-(5-Chloro-6-methoxypyridin-3-yl)-5-(((4,5-dihydro-1H-imidazol-2-yl)amino)methyl)-N-(3,5-dimethoxybenzyl)benzamide] here?
A: Its Ki is 0.37 nM.

Q: With Cc1ccc(CNC(=O)c2cc(CNC3=NCCN3)cc(-c3ccnc(C)c3)c2)cn1 [Example 26, 3-(((4,5-dihydro-1H-imidazol-2-yl)amino)methyl)-N-((6-methylpyridin-3-yl)methyl)-5-(2-methylpyridin-4-yl)benzamide] as the compound, how does the Ki read?
A: The Ki was 3 nM.

Q: Which Ki does the source give for Cc1cnc(F)c(-c2cc(CNC3=NCCN3)cc(C(=O)N(C)C)c2)c1 [Example 40, 3-(((4,5-dihydro-1H-imidazol-2-yl)amino)methyl)-5-(2-fluoro-5-methylpyridin-3-yl)-N,N-dimethylbenzamide] here?
A: Its Ki is 64 nM.

Q: COc1cc(OC)cc(C(C)NC(=O)c2cc(Cn3ccnc3C)cc(-c3ccc(F)c(CO)c3)n2)c1 (stereo not shown) [Example 163, N-(1-(3,5-dimethoxyphenyl)ethyl)-6-(4-fluoro-3-(hydroxymethyl)phenyl)-4-((2-methyl-1H-imidazol-1-yl)methyl)picolinamide] was tested. Which Ki did it give?
A: The Ki was over 33 nM.

Q: With Cc1cc(C)cc(CNC(=O)c2cc(CNC3=NCCN3)cc(-c3ccc(F)nc3C)c2)c1 [Example 6, 3-(((4,5-Dihydro-1H-imidazol-2-yl)amino)methyl)-N-(3,5-dimethylbenzyl)-5-(6-fluoro-2-methylpyridin-3-yl)benzamide] as the compound, how does the Ki read?
A: Its Ki is 0.14 nM.

Q: Cc1cc(-c2cc(CNC3=NCCN3)cc(C(=O)NCc3nccc(C)n3)c2)ccn1 [Example 29, 3-(((4,5-Dihydro-1H-imidazol-2-yl)amino)methyl)-5-(2-methylpyridin-4-yl)-N-((4-methylpyrimidin-2-yl)methyl)benzamide] was tested. Which Ki did it give?
A: Its Ki is 13 nM.

Q: COc1cc(OC)cc(C(C)NC(=O)c2cc(Cn3ccnc3C)cc(-c3ccc(F)c(C(N)=O)c3)n2)c1 (stereo not shown) [Example 161, 6-(3-Carbamoyl-4-fluorophenyl)-N-(1-(3,5-dimethoxyphenyl)ethyl)-4-((2-methyl-1H-imidazol-1-yl)methyl)picolinamide] was tested. Which Ki did it give?
A: Its Ki is over 33 nM.

Q: How did the Ki turn out when COc1cc(OC)cc(C(C)NC(=O)c2cc(CNC3=NCCN3)cc(-c3cnccc3C)c2)c1 (stereo not shown) [Example 20, 3-(((4,5-dihydro-1H-imidazol-2-yl)amino)methyl)-N-(1-(3,5-dimethoxyphenyl)ethyl)-5-(4-methylpyridin-3-yl)benzamide] was run?
A: Its Ki is 0.6 nM.

Q: For Cc1nc(F)ccc1-c1cc(CNC2=NCCN2)cc(C(=O)NCc2ccc(Cl)c(F)c2)n1 [Example 73, N-(4-Chloro-3-fluorobenzyl)-4-(((4,5-dihydro-1H-imidazol-2-yl)amino)methyl)-6′-fluoro-2′-methyl-[2,3′-bipyridine]-6-carboxamide], which Ki is on record?
A: The Ki was 0.43 nM.

Q: Which Ki does the source give for Cc1ccnc(C(NC(=O)c2cc(CNC3=NCCN3)cc(-c3cc(C)cnc3F)c2)C2CC2)c1 (stereo not shown) [Example 39, N-(cyclopropyl(4-methylpyridin-2-yl)methyl)-3-(((4,5-dihydro-1H-imidazol-2-yl)amino)methyl)-5-(2-fluoro-5-methylpyridin-3-yl)benzamide] here?
A: The Ki was under 0.1 nM.

Q: Which Ki does the source give for CCn1cc(-c2cc(CNC(=N)CC3CC3)cc(C(=O)N[C@H](c3ccc(F)c(C)c3)C3CC3)c2)c(C(F)(F)F)n1 [Example 107, (S)—N-(Cyclopropyl(4-fluoro-3-methylphenyl)methyl)-3-((2-cyclopropylacetimidamido)methyl)-5-(1-ethyl-3-(trifluoromethyl)-1H-pyrazol-4-yl)benzamide] here?
A: The Ki was 0.15 nM.

Q: With COc1cc(CNC(=O)c2cc(CNC3=NCCC3)cc(-c3ccncc3C)c2)cc(OC)c1 [Example 61, 3-(((3,4-Dihydro-2H-pyrrol-5-yl)amino)methyl)-N-(3,5-dimethoxybenzyl)-5-(3-methylpyridin-4-yl)benzamide] as the compound, how does the Ki read?
A: The Ki was 1.8 nM.

Q: With CC1(NC(=O)c2cc(Cn3ccnc3)cc(-c3ccc(F)cc3Cl)c2)CCCC1 [Example 138, 5-((1H-Imidazol-1-yl)methyl)-2′-chloro-4′-fluoro-N-(1-methylcyclopentyl)-[1,1′-biphenyl]-3-carboxamide] as the compound, how does the Ki read?
A: Its Ki is 50 nM.

Q: How did the Ki turn out when Cc1ccncc1-c1cc(CNC2=NCCN2)cc(C(=O)NCc2ccc(Cl)c(Cl)c2)c1 [Example 12, N-(3,4-dichlorobenzyl)-3-(((4,5-dihydro-1H-imidazol-2-yl)amino)methyl)-5-(4-methylpyridin-3-yl)benzamide] was run?
A: The Ki was under 0.1 nM.

Q: Which Ki does the source give for COc1cc(F)ccc1-c1cc(Cn2ccnc2C)cc(C(=O)NCc2ccc(Cl)c(Cl)c2)n1 [Example 165, N-(3,4-Dichlorobenzyl)-6-(4-fluoro-2-methoxyphenyl)-4-((2-methyl-1H-imidazol-1-yl)methyl)picolinamide] here?
A: Its Ki is 11 nM.

Q: For COc1ccc(CNC(=O)c2cc(CNC3=NCCN3)cc(-c3ccc(F)nc3C)c2)cc1OC [Example 4, 3-(((4,5-Dihydro-1H-imidazol-2-yl)amino)methyl)-N-(3,4-dimethoxybenzyl)-5-(6-fluoro-2-methylpyridin-3-yl)benzamide], which Ki is on record?
A: The Ki was 0.36 nM.

Reference: patent US10807959B2, “WDR5-MLL1 inhibitors and modulators” (Vanderbilt University, priority 2018, dated 2020)
